Here are results for 7 compounds from publication PMC4057101 (Science (New York, N.Y.), 2013).

Common to all, as to assay type: biochemical
Test [1] concerns the target acetyl-CoA carboxylase (ACCase), AccABCD (Escherichia coli, UniProt P0A9Q5+P0ABD5). The test is described as follows: one-pot carboxylation. As to conditions: formed in situ from fluoroacetate by AckA-Pta; 500 μM CoA.
In a further test the target is T1, NphT7 (Streptomyces sp. CL190, UniProt D7URV0).
T1 sequence (D7URV0 1-329): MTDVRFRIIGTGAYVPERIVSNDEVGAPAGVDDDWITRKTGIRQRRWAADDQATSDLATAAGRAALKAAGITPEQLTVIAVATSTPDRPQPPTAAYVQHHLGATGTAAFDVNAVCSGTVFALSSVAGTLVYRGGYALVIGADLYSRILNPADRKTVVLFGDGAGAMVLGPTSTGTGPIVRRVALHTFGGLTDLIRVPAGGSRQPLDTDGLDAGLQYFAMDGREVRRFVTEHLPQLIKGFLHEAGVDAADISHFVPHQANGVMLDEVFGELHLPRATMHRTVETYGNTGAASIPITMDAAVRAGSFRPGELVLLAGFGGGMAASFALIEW
Nature of the test: steady-state kinetics, coupled assay with PhaB. As to conditions: acetyl-CoA starter.

The next test has as its target DEBSMod6+TE (Saccharopolyspora erythraea, UniProt Q03133). The test is described as follows: LC-MS of triketide lactone formation. As to conditions: NDK-SNAC, MatB and ATP regeneration.
Another test deals with acetate kinase (AckA) (Escherichia coli, UniProt P0A6A3). As to conditions: ATP.
In a further test the target is PhaB (Cupriavidus necator, UniProt P14697). The test is described as follows: coupled reduction with NphT7. As to conditions: substrate formed in situ by NphT7.

Each structure is given as a SMILES string.

DEBSMod6+TE, sequence (Q03133 1468-3172): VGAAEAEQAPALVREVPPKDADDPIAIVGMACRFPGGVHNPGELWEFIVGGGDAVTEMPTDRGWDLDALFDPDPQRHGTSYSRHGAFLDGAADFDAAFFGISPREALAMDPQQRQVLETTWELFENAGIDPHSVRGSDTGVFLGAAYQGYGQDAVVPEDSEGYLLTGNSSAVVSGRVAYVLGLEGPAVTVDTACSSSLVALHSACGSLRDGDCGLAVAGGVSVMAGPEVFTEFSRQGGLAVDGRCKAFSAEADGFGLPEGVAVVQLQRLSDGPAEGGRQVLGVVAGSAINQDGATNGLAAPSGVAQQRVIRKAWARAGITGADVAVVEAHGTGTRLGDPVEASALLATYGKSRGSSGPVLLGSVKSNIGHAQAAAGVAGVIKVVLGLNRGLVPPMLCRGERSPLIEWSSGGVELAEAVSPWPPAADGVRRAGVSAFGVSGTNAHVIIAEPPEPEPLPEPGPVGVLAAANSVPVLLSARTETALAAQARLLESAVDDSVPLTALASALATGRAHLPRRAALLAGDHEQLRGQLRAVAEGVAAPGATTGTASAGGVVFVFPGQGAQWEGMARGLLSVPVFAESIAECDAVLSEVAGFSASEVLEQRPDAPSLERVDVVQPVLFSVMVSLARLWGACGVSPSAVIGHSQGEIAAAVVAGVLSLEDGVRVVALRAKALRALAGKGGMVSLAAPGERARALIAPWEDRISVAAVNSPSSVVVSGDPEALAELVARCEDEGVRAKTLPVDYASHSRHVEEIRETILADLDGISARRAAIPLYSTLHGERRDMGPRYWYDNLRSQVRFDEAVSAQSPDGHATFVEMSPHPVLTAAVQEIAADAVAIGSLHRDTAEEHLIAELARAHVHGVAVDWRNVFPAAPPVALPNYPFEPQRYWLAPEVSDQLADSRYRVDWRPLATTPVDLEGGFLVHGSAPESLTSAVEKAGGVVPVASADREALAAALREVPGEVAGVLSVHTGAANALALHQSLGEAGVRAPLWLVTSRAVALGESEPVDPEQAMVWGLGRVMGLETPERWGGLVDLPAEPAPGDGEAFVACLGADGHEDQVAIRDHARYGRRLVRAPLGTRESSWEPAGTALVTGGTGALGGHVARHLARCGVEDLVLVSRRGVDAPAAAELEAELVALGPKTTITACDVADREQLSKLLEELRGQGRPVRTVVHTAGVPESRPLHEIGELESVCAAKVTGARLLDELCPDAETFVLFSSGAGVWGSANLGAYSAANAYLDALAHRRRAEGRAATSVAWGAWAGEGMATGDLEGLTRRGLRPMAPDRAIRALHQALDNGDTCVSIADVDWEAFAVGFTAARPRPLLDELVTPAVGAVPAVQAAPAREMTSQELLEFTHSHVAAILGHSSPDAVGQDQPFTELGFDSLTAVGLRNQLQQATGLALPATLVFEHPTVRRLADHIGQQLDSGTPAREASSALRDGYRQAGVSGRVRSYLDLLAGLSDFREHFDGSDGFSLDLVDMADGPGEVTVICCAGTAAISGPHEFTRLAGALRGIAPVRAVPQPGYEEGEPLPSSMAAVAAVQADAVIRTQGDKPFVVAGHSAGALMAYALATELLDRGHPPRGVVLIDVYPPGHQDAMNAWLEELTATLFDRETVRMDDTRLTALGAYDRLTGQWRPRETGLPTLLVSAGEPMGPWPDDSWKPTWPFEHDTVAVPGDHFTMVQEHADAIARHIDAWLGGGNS
acetate kinase (AckA), sequence (P0A6A3 whole entry): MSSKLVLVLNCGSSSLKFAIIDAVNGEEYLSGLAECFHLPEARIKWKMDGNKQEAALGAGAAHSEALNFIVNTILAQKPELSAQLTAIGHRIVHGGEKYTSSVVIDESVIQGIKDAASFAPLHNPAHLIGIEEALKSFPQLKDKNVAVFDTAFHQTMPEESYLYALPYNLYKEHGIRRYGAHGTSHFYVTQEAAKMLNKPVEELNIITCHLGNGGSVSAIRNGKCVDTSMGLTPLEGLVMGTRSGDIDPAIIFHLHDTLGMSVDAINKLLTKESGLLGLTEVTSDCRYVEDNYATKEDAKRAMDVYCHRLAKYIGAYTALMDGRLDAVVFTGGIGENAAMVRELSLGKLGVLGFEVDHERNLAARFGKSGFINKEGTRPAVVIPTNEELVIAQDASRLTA
PhaB, sequence (P14697 whole entry): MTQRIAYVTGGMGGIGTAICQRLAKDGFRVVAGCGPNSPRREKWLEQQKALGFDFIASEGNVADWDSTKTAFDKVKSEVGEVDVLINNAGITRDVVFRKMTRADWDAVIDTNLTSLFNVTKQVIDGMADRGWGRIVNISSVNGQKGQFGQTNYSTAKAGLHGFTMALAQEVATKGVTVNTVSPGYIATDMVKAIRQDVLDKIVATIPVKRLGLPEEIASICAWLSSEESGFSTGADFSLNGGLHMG
acetyl-CoA carboxylase (ACCase), AccABCD, sequence (P0A9Q5 whole entry): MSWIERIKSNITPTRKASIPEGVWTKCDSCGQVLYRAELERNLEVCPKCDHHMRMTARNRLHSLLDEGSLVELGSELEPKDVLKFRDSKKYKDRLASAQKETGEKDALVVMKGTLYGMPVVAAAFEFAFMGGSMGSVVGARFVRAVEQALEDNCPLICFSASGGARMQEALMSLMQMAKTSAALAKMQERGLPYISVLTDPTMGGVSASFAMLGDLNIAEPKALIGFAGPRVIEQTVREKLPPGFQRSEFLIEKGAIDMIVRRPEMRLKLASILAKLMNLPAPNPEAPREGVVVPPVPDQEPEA
acetyl-CoA carboxylase (ACCase), AccABCD, sequence (P0ABD5 2-319): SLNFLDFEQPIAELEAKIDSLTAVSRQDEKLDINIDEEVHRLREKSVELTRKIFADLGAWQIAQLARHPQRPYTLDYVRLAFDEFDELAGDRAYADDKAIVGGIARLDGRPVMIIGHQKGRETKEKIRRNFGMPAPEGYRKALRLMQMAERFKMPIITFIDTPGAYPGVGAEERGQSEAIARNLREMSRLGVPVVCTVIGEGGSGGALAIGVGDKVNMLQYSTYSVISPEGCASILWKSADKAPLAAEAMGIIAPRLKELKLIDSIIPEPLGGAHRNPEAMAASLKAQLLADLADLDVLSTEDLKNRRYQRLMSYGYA

As to `CC(C)(COP(=O)(O)OP(=O)(O)OC[C@H]1O[C@@H](n2cnc3c(N)ncnc32)[C@H](O)[C@@H]1OP(=O)(O)O)[C@@H](O)C(=O)NCCC(=O)NCCSC(=O)CF` [fluoroacetyl-CoA], in test [1], the one-pot carboxylation entry is “carry out the carboxylation of fluoroacetate in a one-pot reaction to generate the fluoromalonyl-CoA”. With `CC(C)(COP(=O)(O)OP(=O)(O)OC[C@H]1O[C@@H](n2cnc3c(N)ncnc32)[C@H](O)[C@@H]1OP(=O)(O)O)[C@@H](O)C(=O)NCCC(=O)NCCSC(=O)C(F)C(=O)O` (some centres unmarked) [fluoromalonyl-CoA], at NphT7, the KM result is “formation of acetofluoroacetyl-CoA using an acetyl-CoA starter and fluoromalonyl-CoA extender”. Moreover, the “LC-MS of triketide lactone formation” value on DEBSMod6+TE is “DEBSMod6+TE is also able to accept the fluorinated monomer in chain extension catalysis”.

On to `O=C(O)CF` [fluoroacetate], for which the KM entry on acetate kinase (AckA) was “Analysis of the kinetic parameters for these enzymes with respect to fluorinated substrates”. `CC(C(=O)O)C(=O)SCCNC(=O)CCNC(=O)[C@H](O)C(C)(C)COP(=O)(O)OP(=O)(O)OC[C@H]1O[C@@H](n2cnc3c(N)ncnc32)[C@H](O)[C@@H]1OP(=O)(O)O` (some centres unmarked) [methylmalonyl-CoA]: the “LC-MS of triketide lactone formation” value on DEBSMod6+TE is “single round of chain elongation with its native methylmalonyl-CoA extender unit”. With `CC(=O)C(F)C(=O)SCCNC(=O)CCNC(=O)[C@H](O)C(C)(C)COP(=O)(O)OP(=O)(O)OC[C@H]1O[C@@H](n2cnc3c(N)ncnc32)[C@H](O)[C@@H]1OP(=O)(O)O` (some centres unmarked) [acetofluoroacetyl-CoA], the “coupled reduction with NphT7; 1H and 19F NMR of product” value at PhaB is on record as “PhaB is capable of efficiently reducing the acetofluoroacetyl-CoA substrate”. Consider `CC(C)(COP(=O)(O)OP(=O)(O)OC[C@H]1O[C@@H](n2cnc3c(N)ncnc32)[C@H](O)[C@@H]1OP(=O)(O)O)[C@@H](O)C(=O)NCCC(=O)NCCSC(=O)CC(=O)O` [malonyl-CoA], for which the KM result on NphT7 is reported as “Steady-state kinetic parameters for NphT7-catalyzed C–C bond formation”. Turning to `CC(=O)O` [acetate], the KM entry at acetate kinase (AckA) is “rapidly produce both acetyl- and fluoroacetyl-CoA in nearly quantitative yield”.
